Results: the CheMixHub viscosity set

Assay: xn = mol fraction of the nth substance listed

CNC(C)=O + c1ccccc1
308.15 K, 101.33 kPa
Conditions	viscosity [mPa·s]
x1 = 0.0294	0.4955
x1 = 0.226	0.8005
x1 = 0.3331	1.021
x1 = 0.437	1.255
x1 = 0.5349	1.51
x1 = 0.6329	1.78
x1 = 0.7301	2.099
x1 = 0.823	2.452
x1 = 0.9747	3.132

COCc1ccccc1 + CCCCCOC(C)=O
Conditions	viscosity [mPa·s]
298.15 K, 101 kPa, x2 = 0.5	0.8479

CCOCCO + CC#N
viscosity [mPa·s], 101.33 kPa
Conditions	x1 = 0.1016	x1 = 0.2016	x1 = 0.2865	x1 = 0.4004	x1 = 0.5026	x1 = 0.6026	x1 = 0.7122	x1 = 0.7978	x1 = 0.8997
298.15 K	0.458	0.546	0.638	0.79	0.946	1.128	1.346	1.524	1.786
303.15 K	0.389	0.461	0.535	0.655	0.781	0.921	1.075	1.236	1.435
308.15 K	0.37	0.435	0.501	0.608	0.721	0.845	0.978	1.122	1.295

CC(C)CCO + OCc1ccccc1
viscosity [mPa·s], 101 kPa
Conditions	x1 = 0.0955	x1 = 0.1908	x1 = 0.2853	x1 = 0.3812	x1 = 0.4814	x1 = 0.5847	x1 = 0.6842	x1 = 0.7879	x1 = 0.8921
293.15 K	6.28	6.27	6.26	6.18	6.07	5.86	5.58	5.23	4.86
298.15 K	5.53	5.51	5.49	5.42	5.31	5.11	4.85	4.53	4.19
303.15 K	4.64	4.63	4.62	4.58	4.49	4.37	4.19	3.94	3.64
308.15 K	3.96	3.92	3.89	3.86	3.81	3.7	3.53	3.28	3
313.15 K	3.48	3.44	3.39	3.36	3.31	3.22	3.1	2.95	2.71
318.15 K	3.05	3	2.95	2.89	2.83	2.74	2.63	2.49	2.3

CCOCCO + CCO
298.15 K, 101 kPa
Conditions	viscosity [mPa·s]
x1 = 0.0538	1.147
x1 = 0.1133	1.207
x1 = 0.1798	1.272
x1 = 0.2542	1.341
x1 = 0.3383	1.416
x1 = 0.4341	1.497
x1 = 0.544	1.581
x1 = 0.6716	1.669
x1 = 0.8215	1.761
